Experimental findings from ChEMBL document CHEMBL5634164, “Absolute Configuration of Oxabornyl Polyenes Prugosenes A1-A3 and Structural Revision of Prugosene A2” (J Nat Prod, 2024) are described below.

The subject of data set [1] is Respiratory syncytial virus. Put plainly: Antiviral activity against RSV A2 ATCC VR-1540 infected in HEp-2 cells assessed as inhibition of virus induced cytopathic effect measured after 72 hrs. It counts as functional, organism-based. The conditions noted are these: human respiratory syncytial virus, A2 ATCC VR-1540, HEp-2, 72 h. In general terms: Damage to the host cells serves as the signal in cytopathic effect assays.

Data set [2] in a line: Cytotoxicity against HEp-2 cells. Particulars: human. It counts as toxicity, cell-based.

The structures appear in SMILES notation.

Consider `CC1=C[C@](C)(O)[C@H](C)O[C@@H]1/C(C)=C/C=C/C=C/C=C/C=C/C1(C)C2OC(=O)C1(C)C(=O)C2C` (stereo partly drawn), for which the IC50 (as a rule, the concentration at which inhibition is half-maximal) in data set [1] is 6.3 µM. Besides, the CC50 (in general, the concentration at which the toxic effect on the cells reaches its halfway point) in data set [2] was greater than 100 µM.

`CC1=C[C@@](C)(O)[C@@H](/C(C)=C/C=C/C=C/C=C/C=C/C2(C)C3OC(=O)C2(C)C(=O)C3C)O[C@H]1C` (stereo partly drawn): the IC50 in data set [1] came to 25 µM. For the same molecule, the CC50 in data set [2] is greater than 100 µM.

For `CC1=C[C@@](C)(O)[C@H](/C(C)=C/C=C/C=C/C=C/C=C/C2(C)C3OC(=O)C2(C)C(=O)C3C)O[C@H]1C` (stereo partly drawn), in data set [1], the IC50 is 12 µM. Besides, the CC50 in data set [2] is greater than 100 µM.

With `NC(=O)c1ncn([C@@H]2O[C@H](CO)[C@@H](O)[C@H]2O)n1` [RIBAVIRIN], the IC50 in data set [1] was found to be 15 µM. In data set [2], this molecule gave a 50% cytotoxic concentration (CC50) greater than 100 µM.
